The values that follow come from patent publication US20230330020A1, “MEDICATION THAT PROTECTS THE INTESTINAL MICROBIOTA AND THEIR PREPARATION METHODS AND APPLICATIONS” (priority 2020, published 2023).

Data set [1] in a line: Loading rate (encapsulation efficiency) of antibiotics in PGNPs by double emulsion, single emulsion and dialysis. It is filed as physicochemical. Conditions: hydrophobic antibiotics; Gluc-PEG-PLGA + cationic lipid. From the text: In one implementation, we used a double-emulsification method to encapsulate hydrophilic antibiotics such as ampicillin and erythromycin, and measured an encapsulation efficiency of 50%-60%. Using a dialysis method, we encapsulated hydrophobic antibiotics such as metronidazole and achieved an encapsulation efficiency of 25%. Encapsulation of hydrophobic antibiotics such as metronidazole using a single-emulsification method yielded an encapsulation efficiency of 20%-40%. Various types of antibiotics with different properties can be encapsulated in nanoparticles using methods such as single-emulsification, double-emulsification, and dialysis, as shown in FIG. 3. The double-emulsification method yielded the highest encapsulation efficiency for hydrophilic antibiotics.
For hydrophilic antibiotics, such as ampicillin and vancomycin, the double emulsion method was used for loading. A water-soluble solution (100 mg mL^−1, 30 μL) of either ampicillin or vancomycin was added to 0.5 mL of dichloromethane containing 0.5 mg DOTAP and 5 mg glucose-PEG-PLGA. […] The concentration of the loaded antibiotics in the nanoparticles was measured using a UV spectrophotometer or HPLC. The loading rate was calculated by dividing the mass of loaded antibiotics by the total mass of antibiotics used for loading. […]

A further data set has as its system Streptococcus pneumoniae. Nature of the data set: Mouse pneumonia induced by intranasal Streptococcus pneumoniae, oral treatment. Type of data set: in vivo, mice. How it is done:
In one implementation, the effectiveness of orally administered ampicillin wrapped in PGNPs for treating mouse pneumonia was validated. Firstly, we induced mouse pneumonia by intranasally administering Streptococcus pneumoniae. At 2 and 8 hours post-induction, the mice received either ampicillin encapsulated in PGNPs or free ampicillin treatment. At 24 hours post-infection, the number of Streptococcus pneumoniae in the mouse lungs and the proportion of neutrophil infiltration were analyzed.
Mice were divided into four groups, with two control groups receiving no ampicillin treatment and two treatment groups receiving ampicillin treatment after infection, with at least 3 mice per group. Mouse pneumonia was induced by intranasal inoculation of 3×10^8 CFUs of Streptococcus pneumoniae. After infection, mice were orally treated with either free ampicillin or PGNPs encapsulated with ampicillin (40 mg kg^−1) at 2 hours and 8 hours post-infection. After 24 hours of infection, the number of Streptococcus pneumoniae in the lungs was measured. Mouse lung tissues were collected and homogenized in sterile PBS, diluted 10-fold in PBS, and plated for colony counting. The proportion of neutrophil infiltration in the lungs of the mice was determined by staining the lung tissues with antibodies and analyzing with a flow cytometer.

The subject of data set [2] is ampicillin resistance gene ampC. Description: Real-time quantitative PCR of resistance gene ampC and total bacterial 16S rRNA in fecal DNA. Type of data set: in vivo, mice. Conditions: oral 20 mg kg^-1 once a day 5 days; feces; vs control. How it is done:
We orally administered PGNPs-encapsulated ampicillin and free ampicillin to 6-8 weeks old mice for 5 consecutive days, once a day, while the control group was not given any ampicillin treatment. At specific time points during and after the antibiotic treatment period, we collected fecal samples from the mice, extracted DNA, determined DNA concentration, diluted to 10 ng μL^−1, and analyzed the copy number of the ampicillin resistance gene ampC using real-time fluorescence quantitative PCR.
Mice were divided into four groups, with 6 mice in each group. The control group was not treated with antibiotics, while the experimental group was given free antibiotics or antibiotics encapsulated in PGNPs prepared as described above. The experimental group mice were orally administered ampicillin (20 mg kg^−1) and PGNPs- encapsulated ampicillin once a day for 5 consecutive days. At specific time points, mouse feces were collected, and total DNA was extracted from fecal samples, and the concentration was measured. Real-time quantitative PCR was used to amplify the ampicillin resistance gene ampC and the total bacterial 16S rRNA in fecal DNA, and the copy numbers of the two genes were calculated to determine the effect of the two different antibiotic treatments on the abundance of antibiotic-resistant bacteria in the gut.

Setting [3] is: 40 mg kg^-1 oral at 2 h and 8 h post-infection, 24 h, vs untreated group.

On to `Cc1ncc([N+](=O)[O-])n1CCO` [metronidazole], for which, in data set [1], the “encapsulation efficiency, dialysis method” value came out at 25%.

With `CC1(C)S[C@@H]2[C@H](NC(=O)[C@H](N)c3ccccc3)C(=O)N2[C@H]1C(=O)O` [Free-Amp, ampicillin], in the data set with Streptococcus pneumoniae (setting [3]), the “neutrophil proportion in the lungs” value was “significant decrease” and the “number of lung Streptococcus pneumoniae” value is on record as “significant decrease”. The “therapeutic effect on mouse pneumonia” value in the data set with Streptococcus pneumoniae (oral at 2 and 8 hours post-induction, analysed at 24 hours) is on record as “good therapeutic effects”. Besides, the “copy number of gut bacterial resistance gene ampC” value in data set [2] is reported as “increased sharply over time”.
